Assay results from ChEMBL document CHEMBL3085777, “Improved synthesis and in vitro evaluation of the cytotoxic profile of oxysterols oxidized at C4 (4α- and 4β-hydroxycholesterol) and C7 (7-ketocholesterol, 7α- and 7β-hydroxycholesterol) on cells of the central nervous system” (Eur J Med Chem, 2013).

System: C6
Test: Cytostatic activity against rat C6 cells assessed as growth inhibition after 24 hrs by trypan blue-based cell counting method
Format: functional
Details: C6, 24 h
With `CC(C)CCC[C@@H](C)[C@H]1CC[C@H]2[C@@H]3CC=C4[C@@H](O)[C@@H](O)CC[C@]4(C)[C@H]3CC[C@]12C` the IC50 was at least 160 µM.
For `CC(C)CCC[C@@H](C)[C@H]1CC[C@H]2[C@@H]3CC=C4[C@H](O)[C@@H](O)CC[C@]4(C)[C@H]3CC[C@]12C`, the IC50 was at least 160 µM.

System: not listed separately
Test: Cytostatic activity against mouse 158N cells assessed as cell viability after 24 hrs by trypan blue-based cell counting method
Details: read-out: LD50
`CC(C)CCC[C@@H](C)[C@H]1CC[C@H]2[C@@H]3CC=C4[C@@H](O)[C@@H](O)CC[C@]4(C)[C@H]3CC[C@]12C` gave a CC50 at 24 h of over 160 µM.
For `CC(C)CCC[C@@H](C)[C@H]1CC[C@H]2[C@@H]3CC=C4[C@H](O)[C@@H](O)CC[C@]4(C)[C@H]3CC[C@]12C`, the CC50 at 24 h was over 160 µM.

System: not listed separately
Test: Growth inhibition of BALB/cJRj mouse astrocytes/oligodendrocytes at 50 uM after 24 hrs by trypan blue-based cell counting method
Details: not given
With `CC(C)CCC[C@@H](C)[C@H]1CC[C@H]2[C@@H]3CC=C4[C@@H](O)[C@@H](O)CC[C@]4(C)[C@H]3CC[C@]12C` the Activity was “Non-toxic”.
In the case of `CC(C)CCC[C@@H](C)[C@H]1CC[C@H]2[C@@H]3[C@H](O)C=C4C[C@@H](O)CC[C@]4(C)[C@H]3CC[C@]12C`, the Activity is reported as “Non-toxic”.
For `CC(C)CCC[C@@H](C)[C@H]1CC[C@H]2[C@@H]3[C@@H](O)C=C4C[C@@H](O)CC[C@]4(C)[C@H]3CC[C@]12C`, the Activity was “Toxic”.
For `CC(C)CCC[C@@H](C)[C@H]1CC[C@H]2[C@@H]3CC=C4[C@H](O)[C@@H](O)CC[C@]4(C)[C@H]3CC[C@]12C`, the Activity was “Non-toxic”.
With `CC(C)CCC[C@@H](C)[C@H]1CC[C@H]2[C@@H]3C(=O)C=C4C[C@@H](O)CC[C@]4(C)[C@H]3CC[C@]12C` [7-OXOCHOLESTEROL] the Activity was “Toxic”.

System: C6
Test: Cytotoxicity against rat C6 cells assessed as cell viability after 24 hrs by trypan blue-based cell counting method
Format: functional
Details: C6, 24 h, read-out: LD50 (the source's name)
For `CC(C)CCC[C@@H](C)[C@H]1CC[C@H]2[C@@H]3[C@H](O)C=C4C[C@@H](O)CC[C@]4(C)[C@H]3CC[C@]12C`, the CC50 was at least 160 µM.
Work on `CC(C)CCC[C@@H](C)[C@H]1CC[C@H]2[C@@H]3[C@@H](O)C=C4C[C@@H](O)CC[C@]4(C)[C@H]3CC[C@]12C` yielded a CC50 of 60 µM.
`CC(C)CCC[C@@H](C)[C@H]1CC[C@H]2[C@@H]3C(=O)C=C4C[C@@H](O)CC[C@]4(C)[C@H]3CC[C@]12C` [7-OXOCHOLESTEROL] gave a CC50 of 60 µM.

System: C6
Test: Growth inhibition of rat C6 cells after 24 hrs by trypan blue-based cell counting method
Format: functional
Details: C6, 24 h
`CC(C)CCC[C@@H](C)[C@H]1CC[C@H]2[C@@H]3[C@H](O)C=C4C[C@@H](O)CC[C@]4(C)[C@H]3CC[C@]12C` showed an IC50 of 40 µM.
In the case of `CC(C)CCC[C@@H](C)[C@H]1CC[C@H]2[C@@H]3[C@@H](O)C=C4C[C@@H](O)CC[C@]4(C)[C@H]3CC[C@]12C`, the IC50 is reported as 15 µM.
With `CC(C)CCC[C@@H](C)[C@H]1CC[C@H]2[C@@H]3C(=O)C=C4C[C@@H](O)CC[C@]4(C)[C@H]3CC[C@]12C` [7-OXOCHOLESTEROL] the IC50 was 20 µM.

System: not listed separately
Test: Growth inhibition of human SK-N-BE cells after 24 hrs by trypan blue-based cell counting method
Format: functional
Details: not given
`CC(C)CCC[C@@H](C)[C@H]1CC[C@H]2[C@@H]3CC=C4[C@@H](O)[C@@H](O)CC[C@]4(C)[C@H]3CC[C@]12C` showed an IC50 of over 160 µM.
`CC(C)CCC[C@@H](C)[C@H]1CC[C@H]2[C@@H]3[C@H](O)C=C4C[C@@H](O)CC[C@]4(C)[C@H]3CC[C@]12C` showed an IC50 of at least 160 µM.
With `CC(C)CCC[C@@H](C)[C@H]1CC[C@H]2[C@@H]3[C@@H](O)C=C4C[C@@H](O)CC[C@]4(C)[C@H]3CC[C@]12C` the IC50 was 20 µM.
With `CC(C)CCC[C@@H](C)[C@H]1CC[C@H]2[C@@H]3CC=C4[C@H](O)[C@@H](O)CC[C@]4(C)[C@H]3CC[C@]12C` the IC50 was over 160 µM.
In the case of `CC(C)CCC[C@@H](C)[C@H]1CC[C@H]2[C@@H]3C(=O)C=C4C[C@@H](O)CC[C@]4(C)[C@H]3CC[C@]12C` [7-OXOCHOLESTEROL], the IC50 is reported as 20 µM.

System: not listed separately
Test: Cytotoxicity against mouse 158N cells assessed as cell viability after 24 hrs by trypan blue-based cell counting method
Details: read-out: LD50
`CC(C)CCC[C@@H](C)[C@H]1CC[C@H]2[C@@H]3[C@H](O)C=C4C[C@@H](O)CC[C@]4(C)[C@H]3CC[C@]12C` gave a CC50 at 24 h of 60 µM.
`CC(C)CCC[C@@H](C)[C@H]1CC[C@H]2[C@@H]3[C@@H](O)C=C4C[C@@H](O)CC[C@]4(C)[C@H]3CC[C@]12C` showed a CC50 at 24 h of 15 µM.
`CC(C)CCC[C@@H](C)[C@H]1CC[C@H]2[C@@H]3C(=O)C=C4C[C@@H](O)CC[C@]4(C)[C@H]3CC[C@]12C` [7-OXOCHOLESTEROL] gave a CC50 at 24 h of 30 µM.

System: not listed separately
Test: Cytotoxicity against BALB/cJRj mouse astrocytes/oligodendrocytes assessed as cell viability at 50 uM after 24 hrs by trypan blue-based cell counting method
Details: 24 h, 50 µM
In the case of `CC(C)CCC[C@@H](C)[C@H]1CC[C@H]2[C@@H]3CC=C4[C@@H](O)[C@@H](O)CC[C@]4(C)[C@H]3CC[C@]12C`, the Activity is reported as “Non-toxic”.
In the case of `CC(C)CCC[C@@H](C)[C@H]1CC[C@H]2[C@@H]3[C@H](O)C=C4C[C@@H](O)CC[C@]4(C)[C@H]3CC[C@]12C`, the Activity is reported as “Non-toxic”.
In the case of `CC(C)CCC[C@@H](C)[C@H]1CC[C@H]2[C@@H]3CC=C4[C@H](O)[C@@H](O)CC[C@]4(C)[C@H]3CC[C@]12C`, the Activity is reported as “Non-toxic”.

Same assay, conditions: BALB/cJRj, astrocytes/oligodendrocytes, read-out: Activity
In the case of `CC(C)CCC[C@@H](C)[C@H]1CC[C@H]2[C@@H]3[C@@H](O)C=C4C[C@@H](O)CC[C@]4(C)[C@H]3CC[C@]12C`, the viability at 24 h, 50 µM is reported as 19.9%.
`CC(C)CCC[C@@H](C)[C@H]1CC[C@H]2[C@@H]3C(=O)C=C4C[C@@H](O)CC[C@]4(C)[C@H]3CC[C@]12C` [7-OXOCHOLESTEROL] gave a viability at 24 h, 50 µM of 70.5%.

System: not listed separately
Test: Cytotoxicity against human SK-N-BE cells assessed as cell viability after 24 hrs by trypan blue-based cell counting method
Format: functional
Details: read-out: LD50 (the source's name)
In the case of `CC(C)CCC[C@@H](C)[C@H]1CC[C@H]2[C@@H]3CC=C4[C@@H](O)[C@@H](O)CC[C@]4(C)[C@H]3CC[C@]12C`, the CC50 is reported as over 160 µM.
`CC(C)CCC[C@@H](C)[C@H]1CC[C@H]2[C@@H]3[C@H](O)C=C4C[C@@H](O)CC[C@]4(C)[C@H]3CC[C@]12C` gave a CC50 of over 160 µM.
Work on `CC(C)CCC[C@@H](C)[C@H]1CC[C@H]2[C@@H]3[C@@H](O)C=C4C[C@@H](O)CC[C@]4(C)[C@H]3CC[C@]12C` yielded a CC50 of 55 µM.
`CC(C)CCC[C@@H](C)[C@H]1CC[C@H]2[C@@H]3CC=C4[C@H](O)[C@@H](O)CC[C@]4(C)[C@H]3CC[C@]12C` showed a CC50 of over 160 µM.
Molecule `CC(C)CCC[C@@H](C)[C@H]1CC[C@H]2[C@@H]3C(=O)C=C4C[C@@H](O)CC[C@]4(C)[C@H]3CC[C@]12C` [7-OXOCHOLESTEROL] has a CC50 of 60 µM.

System: C6
Test: Cytostatic activity against rat C6 cells assessed as cell viability after 24 hrs by trypan blue-based cell counting method
Format: functional
Details: C6, 24 h, read-out: LD50 (the source's name)
Molecule `CC(C)CCC[C@@H](C)[C@H]1CC[C@H]2[C@@H]3CC=C4[C@@H](O)[C@@H](O)CC[C@]4(C)[C@H]3CC[C@]12C` has a CC50 of over 160 µM.
Work on `CC(C)CCC[C@@H](C)[C@H]1CC[C@H]2[C@@H]3CC=C4[C@H](O)[C@@H](O)CC[C@]4(C)[C@H]3CC[C@]12C` yielded a CC50 of over 160 µM.

System: not listed separately
Test: Cytostatic activity against mouse 158N cells assessed as growth inhibition after 24 hrs by trypan blue-based cell counting method
Details: not given
Molecule `CC(C)CCC[C@@H](C)[C@H]1CC[C@H]2[C@@H]3CC=C4[C@@H](O)[C@@H](O)CC[C@]4(C)[C@H]3CC[C@]12C` has an IC50 of 30 µM.
`CC(C)CCC[C@@H](C)[C@H]1CC[C@H]2[C@@H]3CC=C4[C@H](O)[C@@H](O)CC[C@]4(C)[C@H]3CC[C@]12C` showed an IC50 of 40 µM.

System: not listed separately
Test: Growth inhibition of mouse 158N cells after 24 hrs by trypan blue-based cell counting method
Details: not given
Molecule `CC(C)CCC[C@@H](C)[C@H]1CC[C@H]2[C@@H]3[C@H](O)C=C4C[C@@H](O)CC[C@]4(C)[C@H]3CC[C@]12C` has an IC50 of 15 µM.
Work on `CC(C)CCC[C@@H](C)[C@H]1CC[C@H]2[C@@H]3[C@@H](O)C=C4C[C@@H](O)CC[C@]4(C)[C@H]3CC[C@]12C` yielded an IC50 of 15 µM.
Work on `CC(C)CCC[C@@H](C)[C@H]1CC[C@H]2[C@@H]3C(=O)C=C4C[C@@H](O)CC[C@]4(C)[C@H]3CC[C@]12C` [7-OXOCHOLESTEROL] yielded an IC50 of 10 µM.
